This passage reports Resveratrol cis isomer and Resveratrol trans-isomer results from patent US20130315848A1, “COSMETIC COMPOSITION FOR SKIN WHITENING COMPRISING RESVERATROL” (DSM IP ASSETS B.V., priority 2010, published 2013).

This data set is described as follows: Analysis of radioactivity in the formulations: trans/cis isomer content. The class given is physicochemical. Particulars: 14C radioactivity in formulation extracts. An excerpt: The different degree of isomerization could be explained by the extent of light exposure during the preparation of the cream and/or during the extraction procedure in the course of the series of experiments.

In the case of “[phenyl-^14C]-resveratrol [^14C-Resveratrol stock solution]”, the Resveratrol cis isomer stood at 0% and the Resveratrol trans-isomer is given as 100%.
